Assay results: PMC10016038, “Enhanced Endosomal Signaling and Desensitization of GLP-1R vs GIPR in Pancreatic Beta Cells” (Endocrinology, 2023)

How the values were obtained:
GIPR-NanoLuc = test: Mini-Gs-Venus recruitment NanoBRET, GIPR; format: cell-based; conditions: 100 nM, n = 4
Method: Mini-Gs-Venus was a gift from Prof. Nevin Lambert, Augusta University, USA. INS-1 832/3 GLP-1R KO or GIPR KO cells were seeded in 12-well plates and co-transfected with 0.5 µg mini-Gs-Venus and either 0.5 µg GLP-1R- or GIPR-NanoLuc, respectively.
All NanoBiT and NanoBRET readings were obtained in a Flexstation 3 plate reader. Briefly, 24 hours after transfection, cells were detached, resuspended in NanoGlo Live Cell Reagent (Promega) with furimazine (1:20 dilution) and seeded into white 96-well half-area plates. […] Readings were normalized to well baseline and then to average vehicle-induced signal to establish the agonist-induced effect. AUCs from response curves were calculated for each agonist concentration and fitted to four-parameter curves using Prism 9 (GraphPad).
Figure 5. Beta cell GLP-1R vs GIPR G protein subtype and β-arrestin 2 recruitment characteristics. (A) Kinetics of Gαs, Gαq, Gαi, and β-arrestin 2 recruitment to the GLP-1R assessed by NanoBiT complementation assay in INS-1 832/3 GLP-1R KO cells transiently expressing GLP-1R-SmBiT and the corresponding mini-G protein subtype or β-arrestin 2. […] (B) Kinetics of Gαs, Gαq, Gαi, and β-arrestin 2 recruitment to the GIPR assessed by NanoBiT complementation assay in INS-1 832/3 GIPR KO cells transiently expressing GIPR-SmBiT and the corresponding mini-G protein subtype or β-arrestin 2. […]

SNAP-tagged human GIPR = test: RICS receptor diffusion / clustering, SNAP-GIPR; format: cell-based; conditions: 5 minutes, 100 nM; n = 4
[1] = tested on: INS-1 832/3 GLP-1R KO cells; test: Insulin secretion assay, GLP-1R KO cells; format: cell-based, rat; conditions: 100 nM, 11 mM glucose; n = 5
Method: At the end of the treatments, the supernatant containing the secreted insulin was collected, centrifuged at 1000g for 3 minutes, and transferred to a fresh tube. To determine total insulin content, cells were lysed using KRBH buffer + 1% w/v BSA + 1% v/v Triton X-100 (Sigma). The lysates were sonicated 3 × 10 seconds in a water bath sonicator and centrifuged at 10 000g for 10 minutes, and the supernatants collected. The samples were stored at −20 °C until the insulin concentration was determined using an Insulin Ultra-Sensitive HTRF Assay kit (62IN2PEG, Cisbio, Codolet, France) according to the manufacturer's instructions.
Figure 7. Functional analysis of GLP-1R vs GIPR signaling in beta cells. […] Data are mean ± SEM, compared by paired t tests; *P < .05; ns, nonsignificant.

| Substance | Gαs recruitment to the GIPR compared to the GLP-1R (GIPR-NanoLuc) | GIPR diffusion (RICS) upon stimulation (SNAP-tagged human GIPR) | Insulin secretion response in GLP-1R KO cells [1] |
| --- | --- | --- | --- |
| GIP(1-42) | significantly reduced Gαs recruitment | marked slowing of diffusion |  |
| GLP-1(7-36)NH2 |  |  | abolished |
